Test results from US20040197834A1, “Method to increase expression of pgd2 receptors and assays for identifying modulators of prostaglandin d2 receptors” (priority 2001, published 2004).
“Also recorded” adds a separate entry of the source.

Tests used:
AML14.3D10 cells = experiment: Butyric acid induced differentiation of AML14.3D10 cells, read out as PGD2 binding to membranes; format: cell-based; conditions: 0.4 mM butyric acid for 7 days
Protocol: (§1) For example, referring to FIG. 1, shown therein are the results of a binding assay, specifically the binding of radioactive PGD2 to membranes. The assay measures the amount of labeled […] bound to cell membranes derived from the herein disclosed cell lines. Briefly, AML14.3D10 and […] cell lines are incubated in the absence and/or presence of […] of butyric acid for 7 days. Membranes were thereafter isolated from the cells and used in aforementioned PGD2 binding assays.
(§2) On the first day of the experiment cells are split at 2×10^5 cells/ml and supplemented with 0.4 mM butyric acid. On the fourth day the cells are diluted to 2×10^5 cells/ml and the concentration of butyric acid is adjusted to 0.4 mM. The cells are harvested on the seventh day.
(§3) HL-60 or AML14.3D10 cells are collected by centrifugation for 6 min at 300 g at 4° C., washed with PBS, centrifuged as before and suspended in 10 mM HEPES/KOH pH 7.4, 1 mM EDTA. […]
(§4) Radioligand binding assays are performed in 10 mM HEPES/KOH pH 7.4, 1 mM EDTA containing 10 mM MnCl2 and 0.8 nM [^3H]PGD2, in a final volume of 0.2 ml. […] Non-specific binding is determined in the presence of 10 μM PGD2. […] The filter is then washed with 4 ml of the same buffer and residual radioligand bound to the filter is determined by liquid scintillation counting following equilibration in 5 ml Ultima Gold™ (Packard).

HL-60 cells = experiment: Butyric acid induced differentiation of HL-60 cells, read out as PGD2 binding to membranes; format: cell-based; conditions: 0.4 mM butyric acid for 7 days
Protocol: as §1, §2, §3, §4

[1] = tested on: PGD2 receptors (CRTH2 and DP) on HL-60 membranes; experiment: [3H]PGD2 radioligand binding assay on HL-60 cell membranes; conditions: for differentiation-induced increase in PGD2 binding competed away: butyric acid differentiated HL-60, Example 3; for tritiated PGD2 binding on membranes competed away: membranes from butyric acid-differentiated HL-60 cells, 1 uM unlabeled competitor, FIG. 2; for binding of labeled PGD2 to membranes: membranes from undifferentiated HL-60 cells
Protocol: (§5) Membranes were isolated from butyric acid-differentiated HL-60 or undifferentiated AML14.3D10 and used in the PGD2 binding assay in the presence or absence of various 1 uM of non-labeled receptor agonists described here below:
(§6) Specific binding of radioactive PGD2 to the membrane was measured and compared to the value obtained in the absence of competitor (ctrl=100% maximum binding).
(§7) HL-60 or AML14.3D10 cells are collected by centrifugation for 6 min at 300 g at 4° C., washed with PBS, centrifuged as before and suspended in 10 mM HEPES/KOH pH 7.4, 1 mM EDTA. The cells are disrupted by nitrogen cavitation (800 psi for 30 min. on ice) in the presence of protease inhibitors (2 mM AEBSF, 10 μM E-64, 100 μM leupeptin and 0.05 mg/ml pepstatin). Cell membrane is isolated by differential centrifugation at 4° C., first at 1000 g for 10 min then 160 000 g for 30 min. After centrifugation the pellet comprising the cell membrane is suspended in 10 mM HEPES/KOH pH 7.4, 1 mM EDTA, pH 7.4 buffer using Dounce homogenization.
(§8) For these assays, specific receptor binding is defined as total associated radioactivity minus the radioactivity measured in the presence of an excess of unlabeled competing ligand. Where possible, more than one competing ligand is used to define residual nonspecific binding. Ligand binding assays are performed using whole cells or cell membranes derived therefrom.
(§9) Radioligand binding assays are performed in 10 mM HEPES/KOH pH 7.4, 1 mM EDTA containing 10 mM MnCl2 and 0.8 nM [^3H]PGD2, in a final volume of 0.2 ml. The reaction is initiated by the addition of 250 μg of membrane protein, prepared as described above. Ligands in dimethylsulfoxide which is kept constant at 1% (v/v) of the final incubation volume are added. Non-specific binding is determined in the presence of 10 μM PGD2. Incubation is conducted for 60 min. at room temperature and is terminated by rapid filtration through GF/C filters prewetted in cold assay incubation buffer (no EDTA) using a Brandel™ harvester. The filter is then washed with 4 ml of the same buffer and residual radioligand bound to the filter is determined by liquid scintillation counting following equilibration in 5 ml Ultima Gold™ (Packard).

[2] = tested on: PGD2 receptors (CRTH2 and DP) on AML14.3D10 membranes; experiment: [3H]PGD2 radioligand binding assay on AML14.3D10 cell membranes; conditions: for differentiation-induced increase in PGD2 binding competed away: butyric acid differentiated AML14.3D10, Example 3; for tritiated PGD2 binding on membranes competed away: membranes from nondifferentiated or differentiated AML14.3D10, 1 uM unlabeled competitor, FIG. 2; for binding of labeled PGD2 to membranes: membranes from undifferentiated AML14.3D10 cells
Protocol: as §5, §6, §7, §8, §9

Row | SMILES | effect of butyric acid treatment on PGD2 binding to membranes (AML14.3D10 cells) | effect of butyric acid treatment on PGD2 binding to membranes (HL-60 cells) | differentiation-induced increase in PGD2 binding competed away [1] | tritiated PGD2 binding on membranes competed away [1] | differentiation-induced increase in PGD2 binding competed away [2] | tritiated PGD2 binding on membranes competed away [2] | binding of labeled PGD2 to membranes [1] | binding of labeled PGD2 to membranes ([1]; listed as 3HPGD2) | binding of labeled PGD2 to membranes [2] | binding of labeled PGD2 to membranes ([2]; listed as 3HPGD2)
1 | CCCC(=O)O [butyric acid] | significant increase in PGD2 binding; also recorded: increased binding of PGD2 | significant increase in PGD2 binding; also recorded: acquired the capacity to bind |  |  |  |  |  |  |  | 
2 | CCCCCC(=O)CCC1C(=O)CC(O)C1C/C=C\CCCC(=O)O (centres unmarked) [DK-PGD2, 13,14-dihydro-15-keto-PGD2] |  |  | About 90% | about 90% | About 90% | about 90% |  |  |  | 
3 | CCCCC[C@H](O)/C=C/[C@H]1C(=O)C[C@H](O)[C@@H]1C/C=C\CCCC(=O)O [PGD2, Prostaglandin D2] |  |  |  |  |  |  | minimal amount of PGD2 binding | does not bind | appreciable level of PGD2 binding | significant level of binding
4 | O=C(O)CCCCCCC1C(=O)NC(=O)N1CCC(O)C1CCCCC1 (centres unmarked) [BW245C] |  |  | about 10% | about 10% | about 10% | about 10% |  |  |  | 
